Experimental data reported in the NIST ThermoML archive (doi:10.1016/j.fluid.2014.11.026).

Conditions: Closed cell (Static) method

CCCCC(=O)CCCC [5-nonanone]
Liquid
Conditions | vapor or sublimation pressure [kPa]
283.83 K | 0.02528
283.85 K | 0.02535
286.19 K | 0.03083
288.55 K | 0.03722
290.9 K | 0.04494
293.32 K | 0.05439
293.35 K | 0.0544
295.75 K | 0.06539
298.1 K | 0.07793
298.12 K | 0.0783
300.56 K | 0.09349
302.92 K | 0.1107
302.94 K | 0.111
305.38 K | 0.1321
307.75 K | 0.1553
307.77 K | 0.1559
310.19 K | 0.1839
312.99 K | 0.2228
313.02 K | 0.2225
315 K | 0.2527
315.38 K | 0.2591
317.8 K | 0.3037
317.81 K | 0.3041
320.16 K | 0.3527
320.18 K | 0.3545
322.58 K | 0.4099
322.62 K | 0.4118
324.99 K | 0.476
325.05 K | 0.4746
327.44 K | 0.5474
327.49 K | 0.5494
329.9 K | 0.6318
329.95 K | 0.638
332.32 K | 0.7257
332.35 K | 0.7296
334.71 K | 0.8311
334.74 K | 0.8375
337.13 K | 0.9562
337.15 K | 0.9511

[CH]1C=CC=C1.[CH]1C=CC=C1.[Fe] [ferrocene]
Crystal
Conditions | vapor or sublimation pressure [kPa]
280.91 K | 0.000154
282.03 K | 0.000176
283.33 K | 0.000202
284.44 K | 0.000229
285.74 K | 0.000264
286.87 K | 0.000298
288.14 K | 0.000344
289.31 K | 0.000388
290.59 K | 0.000447
291.71 K | 0.000501
293.03 K | 0.000576
294.12 K | 0.000646
295.42 K | 0.000741
296.52 K | 0.000829
297.8 K | 0.000942
297.83 K | 0.000947
300.23 K | 0.001197
300.35 K | 0.001218
302.84 K | 0.001542
304.06 K | 0.001742
304.13 K | 0.001753
305.54 K | 0.002007
307.9 K | 0.002499
311.31 K | 0.003428
312.99 K | 0.00399
315.35 K | 0.004949
316.48 K | 0.005493
317.93 K | 0.006236
319.06 K | 0.006868
320.29 K | 0.007672
320.95 K | 0.008091
321.69 K | 0.008661
322.63 K | 0.00937
324 K | 0.01056
325.29 K | 0.01176
325.31 K | 0.0117
327.79 K | 0.01447
330.22 K | 0.01764
331.21 K | 0.01908
332.72 K | 0.0215
335.15 K | 0.02616
336.4 K | 0.02867
337.89 K | 0.03234
340.33 K | 0.03875
341.35 K | 0.04176
342.83 K | 0.04685
345.27 K | 0.05631
346.28 K | 0.06042
347.77 K | 0.06739
350.23 K | 0.08052
351.2 K | 0.08649
352.7 K | 0.09579
355.17 K | 0.1142
357.88 K | 0.1377
360.37 K | 0.1622
362.8 K | 0.1914
365.3 K | 0.2244
367.75 K | 0.2639
370.2 K | 0.3093
372.93 K | 0.3682
375.4 K | 0.425
377.87 K | 0.4978
380.32 K | 0.5748
382.8 K | 0.6695
385.27 K | 0.7725
387.75 K | 0.8978
390.22 K | 1.03
392.69 K | 1.185

O=C(c1ccccc1)c1ccccc1 [benzophenone]
Conditions | vapor or sublimation pressure [kPa]
300.37 K, Crystal | 0.000119
302.88 K, Crystal | 0.000161
302.91 K, Liquid | 0.000237
305.39 K, Crystal | 0.00022
305.41 K, Liquid | 0.000306
307.9 K, Crystal | 0.000302
307.91 K, Liquid | 0.000394
310.26 K, Crystal | 0.000401
310.41 K, Liquid | 0.000503
312.75 K, Crystal | 0.000535
315.24 K, Crystal | 0.000708
317.73 K, Crystal | 0.000939
318.01 K, Liquid | 0.001028
320.23 K, Crystal | 0.001239
320.51 K, Liquid | 0.001288
323.09 K, Liquid | 0.001615
325.59 K, Liquid | 0.002005
328.11 K, Liquid | 0.002469
330.61 K, Liquid | 0.003064
333.13 K, Liquid | 0.003771
335.64 K, Liquid | 0.00461
338.16 K, Liquid | 0.005616
340.68 K, Liquid | 0.006814
343.21 K, Liquid | 0.008284
345.73 K, Liquid | 0.009949
348.24 K, Liquid | 0.01196
350.76 K, Liquid | 0.01435
353.28 K, Liquid | 0.01704
355.79 K, Liquid | 0.02035
358.31 K, Liquid | 0.02415
360.82 K, Liquid | 0.02859
363.34 K, Liquid | 0.03356
368.37 K, Liquid | 0.04652
370.89 K, Liquid | 0.0543
